Data from patent US20110052674A1, “ANGIOTENSIN II RECEPTOR BLOCKER DERIVATIVES” (MERCK SHARP & DOHME CORP., priority 2008, published 2011).
≈ marks a conversion by molar mass, not a printed value.

Key:
[1] = system: isolated rabbit thoracic aorta preparations; experiment: Studies on vascular tone: vasorelaxation in isolated rabbit thoracic aorta preparations; format: cell-based; conditions: vasorelaxation of rabbit aortic rings precontracted with noradrenaline 1 μM, functional endothelium; for EC50: Oryctolagus cuniculus, read-out: EC50 (μM) ± sem
Procedure: The ability of ARB nitroderivatives to induce vasorelaxation in comparison to native ARBs, was tested in vitro in isolated rabbit thoracic aorta preparations (Wanstall J. C. et al., Br. J. Pharmacol., 134:463-472, 2001). Male New Zealand rabbits were anaesthetized with thiopental-Na (50 mg/kg, iv), sacrificed by exsanguinations and then the thorax was opened and the aorta dissected. Aortic ring preparations (4 mm in length) were set up in physiological salt solution (PSS) at 37° C. in small organ chambers (5 ml). The composition of PSS was (mM): NaCl 130, NaHCO3 14.9, KH2PO4 1.2, MgSO4 1.2, HEPES 10, CaCl2, ascorbic acid […] and glucose […] (95% O2/5% CO2; pH 7.4). Each ring was mounted under 2 g passive tension. Isometric tension was recorded with a Grass transducer (Grass FT03) attached to a BIOPAC MP150 System. Preparations were allowed to equilibrate for 1 h, and then contracted submaximally with noradrenaline (NA, 1 μM) and, when the contraction was stable, acetylcholine (ACh, 10 μM) was added. A relaxant response to ACh indicated the presence of a functional endothelium. […] When a stable precontraction was reached, a cumulative concentration-response curve to either of the vasorelaxant agents was obtained in the presence of a functional endothelium. Each arterial ring was exposed to only one combination of inhibitor and vasorelaxant. Moreover, the effect of the soluble guanylyl cyclase inhibitor ODQ (1-H-(1,2,4)-oxadiazol(4,3-a)quinoxalin-1-one) on vasorelaxation elicited by the compounds was examined preincubating the aortic rings with ODQ (10 μM) for 20 min.
Responses to relaxing agents are expressed as a percentage of residual contraction and plotted against concentration of test compound. EC50 values (where EC50 is the concentration producing 50% of the maximum relaxation to the test compound) were interpolated from these plots. During the experimental period, the plateau obtained with NA was stable without significant spontaneous loss of contraction in the aortic rings.
Furthermore, in experiments performed in the presence of ODQ (10 μM), the vasorelaxant responses to tested compounds were inhibited.

[2] = system: spontaneously hypertensive rats (SHRs); experiment: Antihypertensive activity in vivo in conscious spontaneously hypertensive rats; design: species or system rat; conditions: SHR, 10 mpk po single dose, delta vs baseline, telemetry (EXP 3174: tail-cuff method)
Procedure: The ability of the compounds of the invention to decrease blood pressure was evaluated in conscious spontaneously hypertensive rats (SHRs). SHRs (250-300 g) received a single oral dose of EXP 3174 or the corresponding nitroderivative. Systolic blood pressure (SBP) and heart rate were monitored by telemetry for 24 hours after dosing. SBP was evaluated before (baseline) and after (i.e. 6, 24 hours) treatment by oral administration of the compounds. The data were processed both as the absolute value or as a delta between the absolute value and its own baseline.
The Dataquest IV telemetry system (Data Sciences International) was used for measurement of systolic pressure, diastolic pressure, mean arterial pressure, heart rate, and motor activity. The monitoring system consists of a transmitter (radio frequency transducer model TA11PA), receiver panel, consolidation matrix, and personal computer with accompanying software. Before the device was implanted, calibrations were verified to be accurate within ±3 mmHg. Rats were anesthetized with ketamine/xylazine/acepromazine, and the flexible catheter of the transmitter was surgically secured in the abdominal aorta just below the renal arteries. The transmitter was sutured subcutaneously. Rats were housed in individual cages after the operation. Each cage was placed over the receiver panel that was connected to the personal computer for data acquisition. The rats were unrestrained and free to move within their cages. Hemodynamic data were sampled every 2 minutes for 10 seconds.

[3] = Solubility test in PEG 400/H2O 7/3; format: physicochemical; conditions: PEG 400/H2O 7/3, aqueous with cosolvent or surfactant or cyclodextrin, thermodynamic from solid; PEG400/H2O 70:30, 5.0 mg in 1 ml, mixed 1 hour, filtered; read-out: Solubility PEG400/H2O 70:30 (mg/ml) target 5 mg/ml
Procedure: The solubility of the tested compounds in PEG 400/H2O 7/3 was evaluated using a standard curve constructed of six calibration points by plotting the peak areas of the compounds of the invention versus the concentration.
Test solution: 5.0 mg of the nitroderivative were dissolved in 0.7 ml of PEG 400 in a glass volumetric flask and 0.3 ml of water were added. The solution was mixed for 1 hour and filtered through 0.45 μm Acrodisc filter.

Row | SMILES | EC50 [1] [µM] | solubility at 1 h [3] [mg/mL] | EC50 (μM) ± sem [1] | Δ Systolic blood pressure (mmHg) 6 hrs [2] [mmHg] | Δ Systolic blood pressure (mmHg) 24 hrs [2] [mmHg]
1 | CCCCc1nc(Cl)c(C(=O)NCC(=O)OCCCCO[N+](=O)[O-])n1Cc1ccc(-c2ccccc2-c2nnn[nH]2)cc1 [EX. 5, 4-(Nitrooxy)butyl 2-(1-((2′-(1H-tetrazol-5-yl)biphenyl-4-yl)methyl)-2-butyl-4-chloro-1H-imidazole-5-carboxamido)acetate] | 9.2 ± 2.5 | 4.2 (≈ 6.87 mM) | – | −7 | −11
2 | CCCCc1nc(Cl)c(C(=O)N[C@@H](CCC(=O)OCCCCO[N+](=O)[O-])C(=O)OCCCCO[N+](=O)[O-])n1Cc1ccc(-c2ccccc2-c2nn[nH]n2)cc1 [EX. 10] | 5.4 ± 1.8 | – | – | −6 | −11
3 | CCCCc1nc(Cl)c(COC(=O)N[C@H](COC(=O)CCCO[N+](=O)[O-])Cc2ccccc2)n1Cc1ccc(-c2ccccc2-c2nnn[nH]2)cc1 [EX. 2, (S)-2-(((1-((2′-(1H-tetrazol-5-yl)biphenyl-4-yl)methyl)-2-butyl-4-chloro-1H-imidazol-5-yl)methoxy)carbonylamino)-3-phenylpropyl 4-(nitrooxy)butanoate] | 40.1 ± 2.7 | > 5 | – | – | –
4 | CCCCc1nc(Cl)c(C(=O)N[C@@H](Cc2ccccc2)C(=O)OCCCCO[N+](=O)[O-])n1Cc1ccc(-c2ccccc2-c2nnn[nH]2)cc1 [EX. 6] | 14.2 ± 8 | > 5 | – | −12 | −13
5 | CCCCc1nc(Cl)c(COC(=O)NCCOC(=O)CCCO[N+](=O)[O-])n1Cc1ccc(-c2ccccc2-c2nnn[nH]2)cc1 [EX. 1, 2-(((1-((2′-(1H-tetrazol-5-yl)biphenyl-4-yl)methyl)-2-butyl-4-chloro-1H-imidazol-5-yl)methoxy)carbonylamino)ethyl 4-(nitrooxy)butanoate] | 23.6 ± 3.9 | 4 (≈ 6.24 mM) | – | – | –
6 | CCCCc1nc(Cl)c(C(=O)N[C@@H](CC(=O)OCCCCO[N+](=O)[O-])C(=O)OCCCCO[N+](=O)[O-])n1Cc1ccc(-c2ccccc2-c2nn[nH]n2)cc1 [EX. 8, (S)-bis(4-(nitrooxy)butyl) 2-(1-((2′-(2H-tetrazol-5-yl)biphenyl-4-yl)methyl)-2-butyl-4-chloro-1H-imidazole-5-carboxamido)succinate] | 10.4 ± 2.5 | – | – | – | –
7 | CCCCc1nc(Cl)c(COC(=O)N[C@@H](CCCCN)C(=O)OCCCCO[N+](=O)[O-])n1Cc1ccc(-c2ccccc2-c2nnn[nH]2)cc1 [EX. 4, 4-(nitrooxy)butyl 2-(((1-((2′-(1H-tetrazol-5-yl)biphenyl-4-yl)methyl)-2-butyl-4-chloro-1H-imidazol-5-yl)methoxy)carbonylamino)-6-aminohexanoate] | 46 ± 7.2 | – | – | – | –
8 | CCCCc1nc(Cl)c(C(=O)NCC(=O)OCc2ccc(CO[N+](=O)[O-])cc2)n1Cc1ccc(-c2ccccc2-c2nnn[nH]2)cc1 [(46), 4-(nitrooxymethyl)benzyl 2-(1-((2′-(2H-tetrazol-5-yl)biphenyl-4-yl)methyl)-2-butyl-4-chloro-1H-imidazole-5-carboxamido)acetate] | – | 5.07 (≈ 7.69 mM) | – | – | –
9 | CCCCc1nc(Cl)c(COC(=O)NCC(=O)OCCCCO[N+](=O)[O-])n1Cc1ccc(-c2ccccc2-c2nnn[nH]2)cc1 [EX. 3, 4-(nitrooxy)butyl 2-(((1-((2′-(1H-tetrazol-5-yl)biphenyl-4-yl)methyl)-2-butyl-4-chloro-1H-imidazol-5-yl)methoxy)carbonylamino)acetate] | 9.2 ± 4.1 | > 5 | – | – | –
10 | CCCCc1nc(Cl)c(C(=O)N[C@@H](Cc2ccccc2)C(=O)OCCCCC(CO[N+](=O)[O-])O[N+](=O)[O-])n1Cc1ccc(-c2ccccc2-c2nnn[nH]2)cc1 (stereo in doubt) [EX. 9, (S)-(5,6-bis(nitrooxy)hexyl) 2-(1-((2′-(1H-tetrazol-5-yl)biphenyl-4-yl)methyl)-2-butyl-4-chloro-1H-imidazole-5-carboxamido)-3-phenylpropanoate] | 3.4 ± 0.8 | 4.9 (≈ 6.2 mM) | – | – | –
11 | CCOc1nc2cccc(C(=O)O)c2n1Cc1ccc(-c2ccccc2-c2nnn[nH]2)cc1 [Candesartan, reference compound] | – | – | no effect | – | –

Second part, led by results:

Row | EC50 [1] [µM] | solubility at 1 h [3] [mg/mL] | EC50 (μM) ± sem [1] | SMILES | Δ Systolic blood pressure (mmHg) 6 hrs [2] [mmHg] | Δ Systolic blood pressure (mmHg) 24 hrs [2] [mmHg]
12 | 30.6 ± 4.7 | – | – | CCCCc1nc(Cl)c(C(=O)N[C@@H](CCCNC(=N)N)C(=O)OCCCCO[N+](=O)[O-])n1Cc1ccc(-c2ccccc2-c2nn[nH]n2)cc1 [EX. 13, (S)-4-(nitrooxy)butyl 2-(1-((2′-(2H-tetrazol-5-yl)biphenyl-4-yl)methyl)-2-butyl-4-chloro-1H-imidazole-5-carboxamido)-5-guanidinopentanoate] | – | –
13 | 38.7 ± 5.3 | 4.6 | – | CCCCc1nc(Cl)c(C(=O)NCC(=O)NCCCCO[N+](=O)[O-])n1Cc1ccc(-c2ccccc2-c2nnn[nH]2)cc1 [EX. 11, 4-(2-(1-((2′-(1H-tetrazol-5-yl)biphenyl-4-yl)methyl)-2-butyl-4-chloro-1H-imidazole-5-carboxamido)acetamido)butyl nitrate] | −6 | −17
14 | – | – | no effect | CCCCc1nc(Cl)c(C(=O)O)n1Cc1ccc(-c2ccccc2-c2nn[nH]n2)cc1 [EXP 3174, 2-butyl-4-chloro-1-{[2′-(1H-tetrazol-5-yl)biphenyl-4-yl]methyl}-1H-imidazole-5-carboxylic acid, reference compound] | −5 | 2
15 | – | – | no effect | CCCCc1nc(Cl)c(CO)n1Cc1ccc(-c2ccccc2-c2nn[nH]n2)cc1 [Losartan, reference compound] | – | –
16 | 7.1 ± 1.9 | > 5 | – | CCCCc1nc(Cl)c(C(=O)N2CCC[C@H]2C(=O)OCCCCO[N+](=O)[O-])n1Cc1ccc(-c2ccccc2-c2nn[nH]n2)cc1 [EX. 7, (S)-4-(nitrooxy)butyl 1-(1-((2′-(2H-tetrazol-5-yl)biphenyl-4-yl)methyl)-2-butyl-4-chloro-1H-imidazole-5-carbonyl)pyrrolidine-2-carboxylate] | – | –
